# Measured values from ChEMBL document CHEMBL1201862, “PubChem BioAssay data set” (2004).
# The source made the active and inactive calls.
# Experiments:
# [1] = blockers of HIV-1 envelope-mediated cell-cell fusion – cherry-pick, dose response (AID 652057); type: functional, cell-based
# [2] = blockers of HIV-1 ZM109 envelope-driven cell-cell fusion – HeLa effector, CEM target cells, luciferase, cherry-pick, dose response (AID 652058); type: functional, cell-based;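 also: luciferase signal from HIV-1 Env mediated cell-cell fusion of effector and target cells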
# [3] = off-target signal loss in HeLa-CEM21 co-culture – HeLa F-luc CTL cells, cherry-picked, counter-screen for HIV-1 Env fusion inhibitor project, dose response (AID 652040); type: functional, cell-based;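 also: potency for signal decrease marking cytotoxic or nonspecific inhibition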
# [4] = HIV-1 AD8 envelope cell-cell fusion blockers – cherry-pick, dose response (AID 652062); type: functional, cell-based;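 also: luciferase signal from cell-cell fusion driven by HIV-1 clade B AD8 Env; potency is for inhibitors of fusion seen as a drop in luminescence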
# Vero [5] = assay: cells; type: functional, cell-based; details: Chlorocebus sabaeus
# [6] = biological target: T1, Heat shock factor protein 1 (Mus musculus, UniProt P38532); assay: decrease of HSF1-responsive luciferase luminescence – cell-based, NIH3T3, dose retest, confirmation (AID 2382); type: functional;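 also: NIH3T3 fibroblasts with HSF1-driven luciferase reporter stressed by proteasome inhibitor MG132; luminescence from HSF1-driven luciferase expression after 8 hours of MG132 stress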
# T1 sequence (P38532 whole entry): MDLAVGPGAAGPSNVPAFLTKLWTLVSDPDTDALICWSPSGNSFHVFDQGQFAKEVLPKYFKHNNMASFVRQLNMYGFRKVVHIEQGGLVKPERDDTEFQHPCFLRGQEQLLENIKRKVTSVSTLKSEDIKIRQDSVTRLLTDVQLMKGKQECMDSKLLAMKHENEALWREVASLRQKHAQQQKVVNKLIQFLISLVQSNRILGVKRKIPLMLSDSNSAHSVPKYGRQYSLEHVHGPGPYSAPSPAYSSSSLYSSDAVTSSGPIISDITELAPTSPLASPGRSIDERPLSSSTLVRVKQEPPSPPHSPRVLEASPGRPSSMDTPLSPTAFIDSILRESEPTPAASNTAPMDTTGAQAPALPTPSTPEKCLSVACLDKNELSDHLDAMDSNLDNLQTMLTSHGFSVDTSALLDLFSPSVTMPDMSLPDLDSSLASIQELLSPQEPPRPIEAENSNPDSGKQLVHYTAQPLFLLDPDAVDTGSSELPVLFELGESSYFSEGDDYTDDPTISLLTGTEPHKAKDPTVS
# [7] = biological target: Luciferin 4-monooxygenase (Photinus pyralis, UniProt P08659); assay: inhibition of purified Photinus pyralis luciferase – biochemical, luminescence, dose response (AID 1891)
# Luciferin 4-monooxygenase, sequence (P08659 whole entry): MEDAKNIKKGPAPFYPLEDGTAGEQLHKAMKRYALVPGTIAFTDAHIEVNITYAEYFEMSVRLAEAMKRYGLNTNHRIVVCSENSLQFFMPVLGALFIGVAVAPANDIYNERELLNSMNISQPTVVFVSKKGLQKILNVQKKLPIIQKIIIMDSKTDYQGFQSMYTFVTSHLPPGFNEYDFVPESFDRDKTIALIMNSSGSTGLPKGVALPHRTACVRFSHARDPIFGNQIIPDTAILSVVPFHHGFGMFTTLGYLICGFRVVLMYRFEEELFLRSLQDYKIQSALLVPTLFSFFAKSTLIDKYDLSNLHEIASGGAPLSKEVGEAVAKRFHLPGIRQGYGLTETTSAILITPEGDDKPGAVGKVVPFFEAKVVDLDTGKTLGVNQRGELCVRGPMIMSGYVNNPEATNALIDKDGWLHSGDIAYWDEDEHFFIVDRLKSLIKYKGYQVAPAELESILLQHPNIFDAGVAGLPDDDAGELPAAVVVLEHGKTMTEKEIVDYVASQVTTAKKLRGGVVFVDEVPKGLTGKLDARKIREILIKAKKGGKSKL
# [8] = Luminescence Cell-Based Dose Confirmation HTS to Identify Inhibitors of Platelet Dense Granule Release. [Related pubchem assays: 1663 (Primary HTS), 1678 (Summary of Project)]; type: functional
# Vero [9] = assay: cells; type: functional; details: Chlorocebus sabaeus
# [10] = viability loss in HepG2 hepatoma cells – cell-based, ATP luminescence, cherry-pick, activator set 2, cytotoxicity control, dose response (AID 1053143); type: functional
# [11] = microbe, parasite or virus in culture; type: functional; details: Mycobacterium tuberculosis
# [12] = reduction of Shn3 3'UTR-driven luciferase in osteoblasts – cell-based, Clone20 osteoblasts, firefly luciferase, cherry-picked, dose response (AID 624132); type: functional;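 also: firefly luciferase luminescence from reporter carrying the Shn3 3'UTR in osteoblasts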
# [13] = loss of viability in HepG2 cells – cell-based, CellTiter-Glo, cherry-picked, cytotoxicity control for Shn3 inhibitor project, dose response (AID 624134); type: functional
# [14] = non-specific 3'UTR reporter inhibition in Clone20-Shn3RL – cell-based, Renilla luciferase, cherry-picked, counter-screen for Shn3 inhibitor project, dose response (AID 624133); type: functional
# [15] = biological target: FAD-linked sulfhydryl oxidase ALR (Homo sapiens, UniProt P55789); assay: ALR-catalysed DTT oxidation blockers – biochemical, H2O2 detection, luminescence, cherry-pick, dose response (AID 493248)
# FAD-linked sulfhydryl oxidase ALR, sequence (P55789 whole entry): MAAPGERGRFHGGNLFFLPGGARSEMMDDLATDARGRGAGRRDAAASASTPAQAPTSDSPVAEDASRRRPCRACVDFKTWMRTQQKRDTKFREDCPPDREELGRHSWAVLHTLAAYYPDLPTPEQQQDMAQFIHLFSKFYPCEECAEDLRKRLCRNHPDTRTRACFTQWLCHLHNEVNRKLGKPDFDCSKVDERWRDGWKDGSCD
# Genome polyprotein = Genome polyprotein (dengue virus type 2, UniProt P29990); assay: flavivirus cap methylation enzyme inhibition – biochemical, confirmation dose response, primary screen (AID 588689); type: functional
# Genome polyprotein, sequence (P29990 2492-3391 limits assumed): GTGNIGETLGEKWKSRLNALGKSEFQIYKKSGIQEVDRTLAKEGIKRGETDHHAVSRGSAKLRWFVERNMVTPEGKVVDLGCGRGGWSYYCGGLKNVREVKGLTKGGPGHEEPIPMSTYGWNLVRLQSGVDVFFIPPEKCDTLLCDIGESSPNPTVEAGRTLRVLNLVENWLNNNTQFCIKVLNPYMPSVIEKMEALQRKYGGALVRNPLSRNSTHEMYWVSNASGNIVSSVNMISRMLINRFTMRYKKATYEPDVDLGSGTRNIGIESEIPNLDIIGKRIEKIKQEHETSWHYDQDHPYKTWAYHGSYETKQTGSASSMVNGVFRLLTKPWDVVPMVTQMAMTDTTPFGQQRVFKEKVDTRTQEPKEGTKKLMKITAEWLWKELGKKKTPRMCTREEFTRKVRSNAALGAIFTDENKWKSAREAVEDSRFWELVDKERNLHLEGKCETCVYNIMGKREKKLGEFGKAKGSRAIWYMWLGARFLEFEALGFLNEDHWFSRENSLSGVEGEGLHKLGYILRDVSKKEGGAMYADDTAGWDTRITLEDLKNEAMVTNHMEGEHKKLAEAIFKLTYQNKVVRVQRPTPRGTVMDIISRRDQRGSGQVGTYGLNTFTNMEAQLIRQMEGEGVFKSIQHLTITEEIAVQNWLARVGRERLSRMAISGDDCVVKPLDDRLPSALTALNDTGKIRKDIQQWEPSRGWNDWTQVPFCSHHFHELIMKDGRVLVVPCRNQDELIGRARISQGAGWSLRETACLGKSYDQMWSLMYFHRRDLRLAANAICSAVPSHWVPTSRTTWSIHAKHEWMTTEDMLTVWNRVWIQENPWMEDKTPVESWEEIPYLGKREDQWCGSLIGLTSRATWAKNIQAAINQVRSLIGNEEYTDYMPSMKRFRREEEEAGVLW
# Protein skinhead-1 = biological target: T2, Protein skinhead-1 (Caenorhabditis elegans, UniProt P34707); type: functional
# T2 sequence (P34707 whole entry): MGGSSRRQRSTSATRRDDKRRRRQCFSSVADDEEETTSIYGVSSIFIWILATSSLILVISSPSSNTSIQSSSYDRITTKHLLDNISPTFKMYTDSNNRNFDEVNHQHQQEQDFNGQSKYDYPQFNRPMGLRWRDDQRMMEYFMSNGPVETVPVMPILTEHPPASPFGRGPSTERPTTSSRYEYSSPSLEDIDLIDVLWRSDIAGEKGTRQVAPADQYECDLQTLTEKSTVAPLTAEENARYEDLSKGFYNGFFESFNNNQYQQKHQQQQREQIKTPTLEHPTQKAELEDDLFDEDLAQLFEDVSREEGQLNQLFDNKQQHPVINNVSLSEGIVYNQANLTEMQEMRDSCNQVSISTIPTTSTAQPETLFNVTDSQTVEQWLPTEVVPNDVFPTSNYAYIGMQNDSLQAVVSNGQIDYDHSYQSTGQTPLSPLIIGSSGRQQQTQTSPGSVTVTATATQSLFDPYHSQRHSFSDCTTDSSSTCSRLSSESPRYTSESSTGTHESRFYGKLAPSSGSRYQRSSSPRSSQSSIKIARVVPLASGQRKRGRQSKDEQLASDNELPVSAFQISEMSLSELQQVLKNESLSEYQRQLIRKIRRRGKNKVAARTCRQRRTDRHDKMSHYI
# Fatty acid synthase [16] = biological target: T3, Fatty acid synthase (Homo sapiens, UniProt P49327); assay: inhibition of human FAS-TE enzyme activity – biochemical, endpoint fluorescence intensity, uHTS hits, dose response (AID 624327); type: functional;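 also: fluorescence from hydrolysis of an O-methyl fluorescein acyl ester substrate by the enzyme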
# T3 sequence (P49327 whole entry): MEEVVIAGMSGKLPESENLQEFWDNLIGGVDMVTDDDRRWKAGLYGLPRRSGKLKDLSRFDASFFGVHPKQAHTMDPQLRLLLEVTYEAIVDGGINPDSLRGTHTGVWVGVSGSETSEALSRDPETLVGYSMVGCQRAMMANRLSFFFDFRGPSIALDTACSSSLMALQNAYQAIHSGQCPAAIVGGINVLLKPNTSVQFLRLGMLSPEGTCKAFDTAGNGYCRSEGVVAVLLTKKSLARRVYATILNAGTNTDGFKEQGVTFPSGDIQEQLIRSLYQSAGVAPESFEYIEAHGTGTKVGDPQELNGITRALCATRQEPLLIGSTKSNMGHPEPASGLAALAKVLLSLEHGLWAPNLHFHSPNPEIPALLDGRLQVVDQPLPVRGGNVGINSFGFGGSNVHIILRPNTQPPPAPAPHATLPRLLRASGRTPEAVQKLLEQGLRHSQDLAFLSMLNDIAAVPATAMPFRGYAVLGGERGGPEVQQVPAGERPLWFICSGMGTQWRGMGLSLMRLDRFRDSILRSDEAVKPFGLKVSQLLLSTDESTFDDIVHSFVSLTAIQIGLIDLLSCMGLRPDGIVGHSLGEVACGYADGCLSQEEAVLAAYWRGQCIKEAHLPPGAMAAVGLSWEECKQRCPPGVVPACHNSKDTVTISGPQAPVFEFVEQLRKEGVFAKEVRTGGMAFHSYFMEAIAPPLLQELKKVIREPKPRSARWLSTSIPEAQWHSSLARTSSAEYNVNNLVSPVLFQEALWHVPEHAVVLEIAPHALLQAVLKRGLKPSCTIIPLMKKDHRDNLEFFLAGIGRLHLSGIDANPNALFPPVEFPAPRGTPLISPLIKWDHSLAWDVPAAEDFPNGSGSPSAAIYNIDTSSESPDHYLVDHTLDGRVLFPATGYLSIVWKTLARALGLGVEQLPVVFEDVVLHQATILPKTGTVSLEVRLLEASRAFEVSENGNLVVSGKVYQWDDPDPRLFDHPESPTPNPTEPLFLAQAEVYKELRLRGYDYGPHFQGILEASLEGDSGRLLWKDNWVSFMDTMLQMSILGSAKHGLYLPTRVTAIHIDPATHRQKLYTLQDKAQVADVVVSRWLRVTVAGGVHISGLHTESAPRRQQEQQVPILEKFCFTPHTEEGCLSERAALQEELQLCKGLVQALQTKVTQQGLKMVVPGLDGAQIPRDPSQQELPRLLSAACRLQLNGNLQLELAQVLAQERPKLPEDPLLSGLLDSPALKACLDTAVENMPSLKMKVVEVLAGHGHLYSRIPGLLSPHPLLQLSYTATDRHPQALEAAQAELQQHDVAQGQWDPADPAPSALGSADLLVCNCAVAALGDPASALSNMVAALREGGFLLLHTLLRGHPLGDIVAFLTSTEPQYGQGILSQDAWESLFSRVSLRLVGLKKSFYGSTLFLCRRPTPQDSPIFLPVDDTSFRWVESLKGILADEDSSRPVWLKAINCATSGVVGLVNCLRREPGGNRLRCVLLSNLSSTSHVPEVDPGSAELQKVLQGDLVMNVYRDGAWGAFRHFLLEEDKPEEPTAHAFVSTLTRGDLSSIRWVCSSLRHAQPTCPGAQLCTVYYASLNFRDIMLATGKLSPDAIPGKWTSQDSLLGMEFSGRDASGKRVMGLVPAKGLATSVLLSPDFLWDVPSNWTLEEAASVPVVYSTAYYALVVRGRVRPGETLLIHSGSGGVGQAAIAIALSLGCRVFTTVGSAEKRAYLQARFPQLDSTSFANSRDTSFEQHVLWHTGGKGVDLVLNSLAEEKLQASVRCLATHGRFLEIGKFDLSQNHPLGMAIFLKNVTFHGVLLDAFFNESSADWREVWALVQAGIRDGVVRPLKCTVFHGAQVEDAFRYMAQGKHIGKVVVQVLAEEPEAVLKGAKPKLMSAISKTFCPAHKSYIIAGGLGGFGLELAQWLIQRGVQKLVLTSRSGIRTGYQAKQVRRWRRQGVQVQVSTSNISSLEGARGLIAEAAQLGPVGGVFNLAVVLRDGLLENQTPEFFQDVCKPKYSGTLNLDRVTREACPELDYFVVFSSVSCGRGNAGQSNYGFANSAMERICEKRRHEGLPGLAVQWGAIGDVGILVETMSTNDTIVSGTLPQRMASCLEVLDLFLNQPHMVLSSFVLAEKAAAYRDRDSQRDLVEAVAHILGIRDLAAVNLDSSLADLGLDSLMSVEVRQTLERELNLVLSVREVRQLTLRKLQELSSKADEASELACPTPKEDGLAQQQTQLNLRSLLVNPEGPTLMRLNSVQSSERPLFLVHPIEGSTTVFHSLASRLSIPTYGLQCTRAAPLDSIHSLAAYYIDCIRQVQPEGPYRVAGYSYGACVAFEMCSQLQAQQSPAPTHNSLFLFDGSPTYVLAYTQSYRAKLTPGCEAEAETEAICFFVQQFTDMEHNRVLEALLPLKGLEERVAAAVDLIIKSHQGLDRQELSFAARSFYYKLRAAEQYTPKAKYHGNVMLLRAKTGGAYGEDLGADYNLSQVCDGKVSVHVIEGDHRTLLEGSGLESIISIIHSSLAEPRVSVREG
# Fatty acid synthase [17] = biological target: T3, Fatty acid synthase; assay: inhibition of human FAS-TE enzyme activity – biochemical, kinetic fluorescence intensity, dose response (AID 624326); type: functional;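 also: rate of fluorescence rise from hydrolysis of a fluorogenic O-methyl fluorescein ester substrate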
# [18] = biological target: Induced myeloid leukemia cell differentiation protein Mcl-1 (Homo sapiens, UniProt Q07820); type: functional
# Induced myeloid leukemia cell differentiation protein Mcl-1, sequence (Q07820 whole entry, the tested form may be a part): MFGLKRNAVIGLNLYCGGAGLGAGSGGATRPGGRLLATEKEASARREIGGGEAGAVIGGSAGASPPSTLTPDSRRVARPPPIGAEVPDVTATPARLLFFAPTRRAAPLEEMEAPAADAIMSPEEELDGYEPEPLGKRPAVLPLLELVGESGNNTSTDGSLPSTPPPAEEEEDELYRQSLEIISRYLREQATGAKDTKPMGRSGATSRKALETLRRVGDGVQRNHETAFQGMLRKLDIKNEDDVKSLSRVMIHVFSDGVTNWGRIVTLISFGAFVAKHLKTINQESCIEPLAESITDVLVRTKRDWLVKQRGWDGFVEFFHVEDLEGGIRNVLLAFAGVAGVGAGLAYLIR
# [19] = biological target: T4, Carboxy-terminal domain RNA polymerase II polypeptide A small phosphatase 1 (Homo sapiens, UniProt Q9GZU7); assay: CTDSP1 inhibitors, concentration-response, biochemical, absorbance readout, ultra-high-throughput screen actives (AID 540297); type: functional
# T4 sequence (Q9GZU7 whole entry): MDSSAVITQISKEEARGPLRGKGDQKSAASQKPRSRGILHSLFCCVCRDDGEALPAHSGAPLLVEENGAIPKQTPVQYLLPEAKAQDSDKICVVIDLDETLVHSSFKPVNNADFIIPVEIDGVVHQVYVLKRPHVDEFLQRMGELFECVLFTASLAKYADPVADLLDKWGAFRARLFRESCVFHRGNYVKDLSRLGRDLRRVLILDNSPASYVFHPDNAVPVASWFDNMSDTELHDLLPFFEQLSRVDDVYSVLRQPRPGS
# Leucine aminopeptidase = biological target: T5, Leucine aminopeptidase (Plasmodium falciparum 3D7, UniProt Q8IL11); assay: P. falciparum M17LAP inhibitors, primary screen, biochemical, fluorogenic H-Leu-NHMec substrate, 1536-well (AID 1619); type: functional
# T5 sequence (Q8IL11 whole entry): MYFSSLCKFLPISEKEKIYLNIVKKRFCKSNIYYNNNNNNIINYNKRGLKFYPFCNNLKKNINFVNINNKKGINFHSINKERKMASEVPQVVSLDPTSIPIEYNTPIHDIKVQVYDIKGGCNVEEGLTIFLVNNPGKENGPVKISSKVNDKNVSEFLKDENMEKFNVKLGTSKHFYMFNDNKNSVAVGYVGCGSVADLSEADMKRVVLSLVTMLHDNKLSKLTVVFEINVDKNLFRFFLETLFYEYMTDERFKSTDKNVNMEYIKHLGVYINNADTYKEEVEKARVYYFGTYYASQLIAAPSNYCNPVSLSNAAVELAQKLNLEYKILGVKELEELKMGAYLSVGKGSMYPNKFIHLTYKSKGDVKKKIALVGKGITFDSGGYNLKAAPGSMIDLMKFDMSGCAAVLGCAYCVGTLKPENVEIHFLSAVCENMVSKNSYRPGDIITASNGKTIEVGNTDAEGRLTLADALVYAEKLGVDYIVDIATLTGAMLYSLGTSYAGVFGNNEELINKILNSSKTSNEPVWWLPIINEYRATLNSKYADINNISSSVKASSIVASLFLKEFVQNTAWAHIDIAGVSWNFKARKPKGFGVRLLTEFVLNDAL
# cells [20] = type: functional, cell-based
# cells [21] = type: functional, cell-based; remark: listed apart in the source
# [22] = A549 cell cytotoxicity, dose response, cytotoxicity control, plate reader, cherry-pick, antagonist series (AID 743412); type: functional, cell-based
# [23] = toxicity toward HepG2 liver cells – cell-based, plate reader, cherry-pick, antagonist series, cytotoxicity control, dose response (AID 743416); type: functional
# [24] = blockers of bursicon-stimulated LGR2 cAMP reporter – cell-based, HEK293, CRE-luciferase reporter, cherry pick, set 2, dose response (AID 743343); type: functional;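 also: transfected cells were stimulated with diluted bursicon conditioned medium after compound addition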
# [25] = blockade of melanocortin 4 receptor signaling – cell-based, plate reader, cherry pick, counter-screen for LGR2 antagonist project, dose response (AID 743444); type: functional;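 also: transfected HEK 293 cells stimulated with alpha-MSH peptide; potency of inhibitors of the alpha-MSH evoked signal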
# [26] = viability loss in HEK293 cells – cell-based, plate reader, cherry-picked samples, cytotoxicity control, dose response (AID 743446); type: functional
# [27] = general mammalian cell viability loss – activator set, cherry-pick, cytotoxicity control for miR-122 modulator project, dose response (AID 720690); type: functional, cell-based;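 also: HEK293T human cells scored for general mammalian cytotoxicity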
# Cytochrome P450 2C19 = Cytochrome P450 2C19 (Homo sapiens, UniProt P33261); assay: Cytochrome panel assay with activity outcomes. Panel member name: p450-cyp2c19 Compounds with AC50 equal or less than 10 uM are considered active; type: functional; details: read-out: AC50
# Cytochrome P450 2D6 = Cytochrome P450 2D6 (Homo sapiens, UniProt P10635);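 also: CYP2D6 member of a cytochrome P450 panel assay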
# Cytochrome P450 1A2 = biological target: T6, Cytochrome P450 1A2 (Homo sapiens, UniProt P05177);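 also: PubChem cytochrome P450 panel assay, CYP1A2 panel member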
# T6 sequence (P05177 whole entry): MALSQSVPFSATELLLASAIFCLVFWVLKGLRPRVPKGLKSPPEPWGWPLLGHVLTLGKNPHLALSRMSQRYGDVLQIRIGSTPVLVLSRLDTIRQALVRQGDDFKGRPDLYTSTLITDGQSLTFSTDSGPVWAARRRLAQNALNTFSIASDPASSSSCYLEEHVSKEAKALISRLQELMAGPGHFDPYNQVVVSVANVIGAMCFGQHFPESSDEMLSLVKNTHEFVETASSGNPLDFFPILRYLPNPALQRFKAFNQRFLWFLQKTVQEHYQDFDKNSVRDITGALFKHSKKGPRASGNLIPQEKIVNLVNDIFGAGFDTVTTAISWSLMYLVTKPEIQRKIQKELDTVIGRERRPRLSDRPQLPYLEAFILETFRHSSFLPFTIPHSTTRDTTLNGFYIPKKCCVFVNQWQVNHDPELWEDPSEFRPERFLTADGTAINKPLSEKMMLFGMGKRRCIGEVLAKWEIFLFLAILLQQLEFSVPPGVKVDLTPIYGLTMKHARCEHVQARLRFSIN
# Cytochrome P450 2C9 = Cytochrome P450 2C9 (Homo sapiens, UniProt P11712)
# Cytochrome P450 2C9, sequence (P11712 whole entry): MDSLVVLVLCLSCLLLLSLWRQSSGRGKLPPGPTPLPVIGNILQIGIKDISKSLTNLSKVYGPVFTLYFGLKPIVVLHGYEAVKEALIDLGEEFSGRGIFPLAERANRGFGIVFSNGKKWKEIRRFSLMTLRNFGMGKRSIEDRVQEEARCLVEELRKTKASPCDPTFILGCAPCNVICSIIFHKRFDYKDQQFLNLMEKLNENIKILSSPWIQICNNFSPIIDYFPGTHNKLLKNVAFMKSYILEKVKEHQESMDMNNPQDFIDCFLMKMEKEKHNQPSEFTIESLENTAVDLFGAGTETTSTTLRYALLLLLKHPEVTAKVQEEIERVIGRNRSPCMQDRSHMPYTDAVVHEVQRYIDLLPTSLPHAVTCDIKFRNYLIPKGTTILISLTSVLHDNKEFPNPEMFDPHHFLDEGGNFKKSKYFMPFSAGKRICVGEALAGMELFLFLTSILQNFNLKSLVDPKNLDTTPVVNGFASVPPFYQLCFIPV
structure (smiles),measurement,setting,value
COC(=O)c1c(C)oc(C)c1S(=O)(=O)NC(c1ccccc1)c1ccccc1,AC50,[1],5.64 µM (active)
same,AC50,[2],6.38 µM (active)
same,AC50,[3],6.55 µM (active)
same,AC50,[4],6.05 µM (active)
Cc1ccc(C(=O)C[n+]2ccccc2C)cc1[N+](=O)[O-],IC50,Vero [5],5.84 µM (active)
N=c1c2c(ncn1CCCO)Oc1c(ccc3ccccc13)C2c1ccccc1 (stereo not drawn),EC50,[6],> 195 µM (not active)
same,EC50,[7],> 112 µM (not active)
same,EC50,[8],> 112 µM (not active)
same,CC50,Vero [9],15.4 µM (active)
same,AC50,[10],26 µM (active)
Oc1cc(Nc2ccccc2)cc2cccnc12,CC50,[11],7.2 µM (active)
same,AC50,[12],1.79 µM (active)
same,AC50,[13],36 µM (active)
same,AC50,[14],6.62 µM (active)
CN(C)C1=NC[C@H](Cc2ccccc2)N1CCCC1CCCC1,AC50,[12],2.63 µM (active)
same,AC50,[13],> 70 µM (inactive)
same,AC50,[14],2.5 µM (active)
COc1cc(NC(=O)c2cccs2)ccc1NC(=O)c1ccco1,AC50,[10],12 µM (active)
O=C(CCN1C(=O)/C(=C/c2ccccc2Cl)SC1=S)Nc1ccccc1C(=O)O,AC50,[15],2.46 µM (active)
same,IC50,Genome polyprotein,77.7 µM (active)
same,IC50,Protein skinhead-1,> 100 µM (inactive)
same,IC50,Fatty acid synthase [16],6.5 µM (active)
same,IC50,Fatty acid synthase [17],5.37 µM (active)
COc1ccc(C(CC(=O)N2CCCC2)c2c(OC)cc(OC)c3c(-c4ccccc4)cc(=O)oc23)cc1 (stereo not drawn),IC50,[18],4.62 µM (active)
same,IC50,[19],9.82 µM (active)
Cc1occc1C(=O)Nc1sc2c(c1C(N)=O)CCCCC2,IC50,Leucine aminopeptidase,54.6 µM (active)
O=C(Nc1ncccc1O)c1ccc2c(c1)OCO2,EC50,cells [20],99.2 µM (active)
same,EC50,cells [21],51.7 µM (active)
same,AC50,[10],26 µM (active)
CC(C)CN(C(=O)C(c1ccccc1)c1ccccc1)c1c(N)n(CC(C)C)c(=O)[nH]c1=O,AC50,[1],1.62 µM (active)
same,AC50,[2],0.619 µM (active)
same,AC50,[3],1.72 µM (active)
same,AC50,[4],1.91 µM (active)
CCC1=C(CC2NCCc3ccccc32)CC2c3cc(OC)c(OC)cc3CCN2C1 (stereo not drawn),IC50,Vero [5],> 25 µM (active)
same,CC50,Vero [9],5.14 µM (active)
same,AC50,[22],2.13 µM (active)
same,AC50,[23],4.16 µM (active)
same,AC50,[24],6.49 µM (active)
same,AC50,[25],7.63 µM (active)
same,AC50,[26],33.6 µM (active)
COc1ccccc1NC(=O)Nc1nc(C(N)Cc2ccc(C(F)(F)F)cc2)cs1 (stereo not drawn),AC50,[12],10.3 µM (active)
same,AC50,[13],25.1 µM (active)
same,AC50,[14],24 µM (active)
Cc1ccccc1-c1ccc([C@@H]2[C@@H](CO)N3CCCCN(C(=O)Nc4ccc(F)cc4)C[C@@H]23)cc1,AC50,[27],31.1 µM (active)
COc1ccccc1/C=C/C=N/N1CCN(Cc2ccc(Cl)cc2)CC1.Cl,AC50,Cytochrome P450 2C19,6.31 µM (inconclusive)
same,AC50,Cytochrome P450 2D6,8.91 µM (inconclusive)
same,AC50,Cytochrome P450 1A2,15.8 µM (inconclusive)
same,AC50,Cytochrome P450 2C9,inconclusive
